Assay results reported in paper PMC3199943, “Screening the MayBridge Rule of 3 Fragment Library for Compounds That Interact with the Trypanosoma brucei myo-Inositol-3-Phosphate Synthase and/or Show Trypanocidal Activity” (Molecular Biology International, 2011).
Where two headings read alike, the source gives them in different places.

How the values were obtained:
A549 cells = assay: Cytotoxicity against A549 cells, Alamar Blue; format: cell-based; conditions: Supplementary Table 1, compound 0.5 mM, percentage of controls (n=1); for viability at 500 µM: Homo sapiens, A549, 65 h
Description: (§1) Cytotoxic effects against HeLa and A549 cells were determined in a similar manner. Briefly, the cells were cultured in DMEM supplemented with 10% FCS and 2 mM L-Glutamine. Cells were plated at initial cell concentration of 2 × 10^4 cells/well and incubated with the compounds for ~65 hours prior to addition of Alamar Blue solution for a further 5 hours.

HeLa cells = assay: cells; conditions: for viability at 500 µM / CC50: Homo sapiens, HeLa; for viability at 500 µM: 65 h; for HeLa Cells Alamar Blue: Supplementary Table 1; for CC50: read-out: HeLa ED50
Description: as §1

[1] = read-out: HeLa Cells Alamar Blue
[2] = compound 0.5 mM, percentage of controls, mean ± SD (n=3) or SE (n=2)

| Compound | viability at 500 µM (A549 cells) | viability at 500 µM (HeLa cells; [1]) | further results |
| --- | --- | --- | --- |
| COC(=O)c1ccccc1F [compound 220, methyl 2‐fluorobenzoate] | 99.5% | 108 ± 17.6% |  |
| CC12CCC(O)(CC1)CC2=O [compound 222, 4‐hydroxy‐1‐methylbicyclo[2.2.2]octan‐2‐one] |  |  | A549 Cells Alamar Blue (A549 cells): 82.3 percentage of controls; HeLa Cells Alamar Blue (HeLa cells; [2]): 101.8 ± 5.9 percentage of controls |
| CCCCc1nc(CO)c[nH]1 [compound 223, (2‐butyl‐1H‐imidazol‐4‐yl)methanol] | 139% | 105 ± 13.7% |  |
| CC1(C)CC(=O)CC(C)(C)N1 [compound 228, 2,2,6,6‐tetramethyltetrahydro‐4(1H)‐pyridinone] |  |  | A549 Cells Alamar Blue (A549 cells): 61.9 percentage of controls; HeLa Cells Alamar Blue (HeLa cells; [2]): 101.3 ± 5.4 percentage of controls |
| NC(=O)c1ccccc1Cl [compound 230, 2‐chlorobenzamide] | 92.9% | 104 ± 8.8% |  |
| CNCc1ccc(Cl)cc1 [compound 231, N‐(4‐chlorobenzyl)‐N‐methylamine] | 107% | 113 ± 3.7% |  |
| Cc1cc(N)c(N)cc1Cl [compound 240, 4-chloro-5-methylbenzene-1,2-diamine] | 14.7% | 12.1 ± 8.7% | CC50 (HeLa cells): 454 ± 55 µM |
| Cc1nc(CC(=O)O)cs1 [compound 243, 2‐(2‐methyl‐1,3‐thiazol‐4‐yl)acetic acid] | 113% | 99.5 ± 1.1% |  |
| CCOC(=O)C1CCNCC1 [compound 245, ethyl piperidine‐4‐carboxylate] | 99% | 97.8 ± 3.2% |  |
| COc1ccc(Cl)cc1N [compound 246, 5‐chloro‐2‐methoxyaniline] | 113% | 113 ± 16.7% |  |
| c1ccc(Cn2cccc2)nc1 [compound 249, 2‐(1H‐pyrrol‐1‐ylmethyl)pyridine] | 83.6% | 93.1 ± 19.9% |  |
| Nc1ccc(-n2cccc2)cc1 [compound 250, 4‐(1H‐pyrrol‐1‐yl)aniline] | 89.1% | 107 ± 16.6% | CC50 (HeLa cells): 1400 ± 100 µM |
| Clc1cn2ccsc2n1 [compound 253, 6‐chloroimidazo[2,1‐b][1,3]thiazole] | 85.1% | 82.1% |  |
| OCc1ccc2ncccc2c1 [compound 255, 6‐quinolinylmethanol] | 84% | 89.6 ± 6.8% |  |
| Cc1ccc(-c2cnco2)cc1 [compound 259, 5‐(4‐methylphenyl)‐1,3‐oxazole] | 88.1% | 88.4 ± 2.5% |  |
| Nc1ccccc1-n1cccn1 [compound 260, 2‐(1H‐pyrazol‐1‐yl)aniline] | 97.3% | 98.1 ± 5.6% |  |
| NCc1ccc(F)c(Cl)c1 [compound 264, 3‐chloro‐4‐fluorobenzylamine] | 88.4% | 47.5 ± 13.5% |  |
| Cc1ccc2oc(=O)ccc2c1 [compound 265, 6‐methyl‐2H‐chromen‐2‐one] | 63.8% | 95.8 ± 17.2% |  |
| Oc1ccc(-n2ccnc2)cc1 [compound 266, 4‐(1H‐imidazol‐1‐yl)phenol] | 108% | 83 ± 19.8% |  |
| Nc1cc(F)c(Cl)cc1N [compound 269, 4-chloro-5-fluorobenzene-1,2-diamine] | 50.4% | 23.4 ± 14.8% | CC50 (HeLa cells): 431 ± 53 µM |
| Nc1ccc(C(F)(F)F)cc1 [compound 270, 4‐(trifluoromethyl)aniline] | 104% | 21.8 ± 14.5% | CC50 (HeLa cells): 206 ± 13 µM |
| COC(=O)c1ccccc1C#N [compound 274, methyl 2‐cyanobenzoate] | 64% | 91 ± 19.6% |  |
| O=C(O)c1cc2ccccc2[nH]1 [compound 275, 1H‐indole‐2‐carboxylic acid] | 67.3% | 89.7 ± 16.4% |  |
| Cn1ccc2ccc(CO)cc21 [compound 278, (1‐methyl‐1H‐indol‐6‐yl)methanol] | 47.8% | 18.2 ± 10.4% |  |
| Nc1cc(Cl)cc(Cl)c1 [compound 282, 3,5‐dichloroaniline] | 66.5% | 86.4 ± 8.5% |  |
| Nc1ccc(C(F)(F)F)cn1 [compound 283, 5‐(trifluoromethyl)pyridin‐2‐amine] | 63.6% | 92.7 ± 5.3% |  |
| OCCc1coc2ccccc12 [compound 284, 2‐benzo[b]furan‐3‐ylethanol] | 63.3% | 58.7 ± 17.4% |  |

| Compound | viability at 500 µM (A549 cells) | viability at 500 µM (HeLa cells; [1]) | further results |
| --- | --- | --- | --- |
| Cn1nc(CO)c2ccccc21 [compound 286, (1‐methyl‐1H‐indazol‐3‐yl)methanol] | 73.2% | 90.9 ± 3.1% |  |
| Cc1nc2ccccn2c1CO [compound 287, (2‐methylimidazo[1,2‐a]pyridin‐3‐yl)methanol] |  |  | A549 Cells Alamar Blue (A549 cells): 79.7 percentage of controls; HeLa Cells Alamar Blue (HeLa cells; [2]): 76.2 ± 14 percentage of controls |
| Nc1ccccc1N1CCCC1 [compound 289, 2‐pyrrolidin‐1‐ylaniline] | 23.8% | 11.4 ± 9.5% |  |
| O=C(O)c1sccc1Cl [compound 290, 3‐chlorothiophene‐2‐carboxylic acid] | 117% | 86.9 ± 14.3% |  |
| NCCc1cccc2c1OCC2 [compound 293, 2,3‐Dihydrobenzo[b]furan‐7‐ethylamine] | 19.8% | 10.8 ± 0.1% |  |
| NCc1ccc2sccc2c1 [compound 294, 1‐benzothiophen‐5‐ylmethylamine] | 70.6% | 98.5 ± 13.1% |  |
| FC(F)(F)C1=NCCNC=C1 [compound 295, 5‐(trifluoromethyl)‐2,3‐dihydro‐1H‐1,4‐diazepine] |  |  | A549 Cells Alamar Blue (A549 cells): 72.1 percentage of controls; HeLa Cells Alamar Blue (HeLa cells; [2]): 75.2 ± 18.7 percentage of controls |
| Oc1ncnc2cccc(F)c12 [compound 296, 5‐fluoroquinazolin‐4‐ol] | 63.7% |  | viability at 500 µM (HeLa cells; read-out: HeLa Cells Alamar Blue, Supplementary Table 1, compound 0.5 mM, percentage of controls, mean ± SD (n=3) or SE (n=2)): 92.7 ± 1.9% |
| O=C(O)c1cccc2c1OCC2 [compound 297, 2,3‐dihydrobenzo[b]furan‐7‐carboxylic acid] |  |  | A549 Cells Alamar Blue (A549 cells): 74.9 percentage of controls; HeLa Cells Alamar Blue (HeLa cells; [2]): 78.8 ± 7.5 percentage of controls |
| OCC1CCc2ccccc2O1 (stereo not shown) [compound 299, 3,4‐dihydro‐2H‐chromen‐2‐ylmethanol] | 80.3% | 85.1 ± 14.7% |  |
| OCC1COc2ccccc2C1 (stereo not shown) [compound 300, 3,4‐dihydro‐2H‐chromen‐3‐ylmethanol] | 113% | 90 ± 16.3% |  |
| Cc1nc2ccc(N)cc2s1 [compound 302, 2‐methyl‐1,3‐benzothiazol‐6‐ylamine] | 62.3% | 71.9 ± 12.4% |  |
| COC(=O)c1ccc(N)c(C)c1 [compound 304, methyl 4‐amino‐3‐methylbenzoate] | 63.4% | 100 ± 8.9% |  |
| NCc1ccc2c(c1)OCCO2 [compound 306, 2,3‐dihydro‐1,4‐benzodioxin‐6‐ylmethylamine] |  |  | A549 Cells Alamar Blue (A549 cells): 72.7 percentage of controls; HeLa Cells Alamar Blue (HeLa cells; [2]): 109.2 ± 5.6 percentage of controls |
| Nc1ccc2c(c1)OCCCO2 [compound 308, 3,4‐dihydro‐2H‐1,5‐benzodioxepin‐7‐amine] |  |  | A549 Cells Alamar Blue (A549 cells): 82.8 percentage of controls; HeLa Cells Alamar Blue (HeLa cells; [2]): 98.7 ± 6.1 percentage of controls |
| NCC1COc2ccccc2O1 (stereo not shown) [compound 309, 2,3‐dihydro‐1,4‐benzodioxin‐2‐ylmethylamine] |  |  | A549 Cells Alamar Blue (A549 cells): 68.9 percentage of controls; HeLa Cells Alamar Blue (HeLa cells; [2]): 12.3 ± 8.8 percentage of controls |
| Cn1c(=S)oc2ccccc21 [compound 310, 3‐methyl‐1,3‐benzoxazole‐2(3H)‐thione] | 104% | 103 ± 14.3% |  |
| OCc1nc2ccccc2s1 [compound 312, 1,3‐benzothiazol‐2‐ylmethanol] | 64.4% | 80.7 ± 16.2% |  |
| OCc1ccc(C(F)(F)F)o1 [compound 314, [5‐(trifluoromethyl)‐2‐furyl]methanol] | 76.9% | 114 ± 8.2% |  |
| Cn1nc(O)cc1C(F)(F)F [compound 316, 1‐methyl‐5‐(trifluoromethyl)‐1H‐pyrazol‐3‐ol] |  |  | A549 Cells Alamar Blue (A549 cells): 95.3 percentage of controls; HeLa Cells Alamar Blue (HeLa cells; [2]): 111.8 ± 17.2 percentage of controls |
| O=C1CCC(C(F)(F)F)CC1 [compound 317, 4‐(trifluoromethyl)cyclohexan‐1‐one] | 90.5% | 111 ± 7.2% |  |
| O=C1CCOc2ccc(F)cc21 [compound 318, 6‐fluorochroman‐4‐one] | 99% | 104 ± 16.4% |  |
| OCC1COc2ccccc2O1 (stereo not shown) [compound 319, 2,3‐dihydro‐1,4‐benzodioxin‐2‐ylmethanol] |  |  | A549 Cells Alamar Blue (A549 cells): 86.4 percentage of controls; HeLa Cells Alamar Blue (HeLa cells; [2]): 102.6 ± 5.1 percentage of controls |
| OCc1ccc2c(c1)OCCO2 [compound 320, 2,3‐dihydro‐1,4‐benzodioxin‐6‐ylmethanol] |  |  | A549 Cells Alamar Blue (A549 cells): 78.8 percentage of controls; HeLa Cells Alamar Blue (HeLa cells; [2]): 111.9 ± 16.4 percentage of controls |
| OCCc1ccc2c(c1)OCO2 [compound 321, 2‐(1,3‐benzodioxol‐5‐yl)ethanol] | 138% | 109 ± 5.9% |  |
| OCc1cccc2c1OCCO2 [compound 322, 2,3‐dihydro‐1,4‐benzodioxin‐5‐ylmethanol] |  |  | A549 Cells Alamar Blue (A549 cells): 96.4 percentage of controls; HeLa Cells Alamar Blue (HeLa cells; [2]): 100.4 ± 14.9 percentage of controls |
| CC12CC(=O)CC1(C)CC(=O)C2 (stereo not shown) [compound 324, 3a,6a‐dimethylperhydropentalene‐2,5‐dione] |  |  | A549 Cells Alamar Blue (A549 cells): 94.2 percentage of controls; HeLa Cells Alamar Blue (HeLa cells; [2]): 103.2 ± 21.9 percentage of controls |
